Results: publication PMC5908784, “Extracellular loops 2 and 3 of the calcitonin receptor selectively modify agonist binding and efficacy” (Biochemical Pharmacology, 2018)
Residue numbers refer to the chain shown, from its start. Read-outs that look alike come from different tables or passages of the source. Where a SMILES comes first, the peptide text is derived from it. Bridges are numbered along the chain shown (N, C = ends).

Tests used:
Experiment in all cases: ERK1/2 phosphorylation
Assay type in all cases: cell-based
[1] = molecular target: T1, hCTR E294A (Homo sapiens, UniProt P30988, E294A); conditions: for Emax: read-out: Emax (% WT); for EC50: pERK, three-parameter logistic fit
T1 construct: c-Myc (N); expressed in transfected cells
T1 sequence (P30988 25-474 E294A): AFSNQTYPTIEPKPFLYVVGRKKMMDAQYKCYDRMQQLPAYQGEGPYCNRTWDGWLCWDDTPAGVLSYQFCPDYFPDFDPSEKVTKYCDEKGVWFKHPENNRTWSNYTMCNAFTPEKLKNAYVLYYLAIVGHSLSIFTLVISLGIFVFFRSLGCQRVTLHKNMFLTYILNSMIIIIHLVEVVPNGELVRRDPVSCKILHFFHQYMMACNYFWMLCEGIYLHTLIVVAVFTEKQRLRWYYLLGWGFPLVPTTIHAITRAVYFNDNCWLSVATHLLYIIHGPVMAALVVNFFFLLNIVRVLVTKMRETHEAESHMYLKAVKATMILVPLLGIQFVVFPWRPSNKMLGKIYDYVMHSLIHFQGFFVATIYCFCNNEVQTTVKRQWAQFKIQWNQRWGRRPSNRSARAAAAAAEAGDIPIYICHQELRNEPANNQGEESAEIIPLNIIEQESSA
How it was run: (§1)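 Cells were seeded at 2.5 × 10^4 cells/well and cultured overnight before stimulation. ERK1/2 phosphorylation was normalized to the maximal response to 10% FBS measured at 6 min. EC50 and Emax came from a 3-parameter logistic fit of concentration-response curves.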

[2] = molecular target: T2, hCTR F356A (Homo sapiens, UniProt P30988, F356A); conditions: CV1-FlpIn cells, mean ± S.E.M.; for Emax: pERK maximal response; for EC50: pERK, three-parameter logistic fit
T2 construct: c-Myc (N); expressed in transfected cells
T2 sequence (P30988 25-474 F356A): T1 sequence (P30988 25-474 E294A) with A270E, F332A
How it was run: as §1

[3] = molecular target: T3, hCTR I300A (Homo sapiens, UniProt P30988, I300A); conditions: CV1-FlpIn cells, mean ± S.E.M.; for Emax: pERK maximal response; for EC50: pERK, three-parameter logistic fit
T3 construct: c-Myc (N); expressed in transfected cells
T3 sequence (P30988 25-474 I300A): T1 sequence (P30988 25-474 E294A) with A270E, I276A
How it was run: as §1

[4] = molecular target: T4, hCTR N286A (Homo sapiens, UniProt P30988, N286A); conditions: CV1-FlpIn cells, mean ± S.E.M.; for Emax: pERK maximal response; for EC50: pERK, three-parameter logistic fit
T4 construct: c-Myc (N); expressed in transfected cells
T4 sequence (P30988 25-474 N286A): T1 sequence (P30988 25-474 E294A) with N262A, A270E
How it was run: as §1

[5] = molecular target: T5, hCTR Y299A (Homo sapiens, UniProt P30988, Y299A); conditions: CV1-FlpIn cells, mean ± S.E.M.; for Emax: pERK maximal response
T5 construct: c-Myc (N); expressed in transfected cells
T5 sequence (P30988 25-474 Y299A): T1 sequence (P30988 25-474 E294A) with A270E, Y275A
How it was run: as §1

[6] = pERK maximal response, hCTR E294A, CV1-FlpIn cells, mean ± S.E.M.
[7] = hCTR E294A, CV1-FlpIn cells, mean ± S.E.M.

Row | Compound | Emax [1] [%] | Emax [2] [%] | Emax [3] [%] | Emax [4] [%] | Emax [5] [%] | Emax [1, 6] [%] | EC50 [1, 7] [nM] | EC50 [2] [nM] | EC50 [3] [nM] | EC50 [4] [nM] | EC50 ([5]; pERK, three-parameter logistic fit) [nM]
1 | CC(C)C[C@H](NC(=O)[C@H](CC(N)=O)NC(=O)[C@H](CC(N)=O)NC(=O)[C@H](CO)NC(=O)[C@H](CO)NC(=O)[C@H](CCCNC(=N)N)NC(=O)[C@@H](NC(=O)[C@H](CC(C)C)NC(=O)[C@H](Cc1ccccc1)NC(=O)[C@H](CC(N)=O)NC(=O)[C@H](C)NC(=O)[C@H](CC(C)C)NC(=O)[C@H](CCCNC(=N)N)NC(=O)[C@H](CCC(N)=O)NC(=O)[C@@H](NC(=O)[C@H](C)NC(=O)[C@@H]1CSSC[C@H](NC(=O)[C@@H](N)CCCCN)C(=O)N[C@@H](CC(N)=O)C(=O)N[C@@H]([C@@H](C)O)C(=O)N[C@@H](C)C(=O)N[C@@H]([C@@H](C)O)C(=O)N1)[C@@H](C)O)C(C)C)C(=O)NCC(=O)N1CCC[C@H]1C(=O)N[C@H](C(=O)N[C@@H](CC(C)C)C(=O)N1CCC[C@H]1C(=O)N1CCC[C@H]1C(=O)N[C@H](C(=O)N[C@@H](CC(N)=O)C(=O)N[C@H](C(=O)NCC(=O)N[C@@H](CO)C(=O)N[C@@H](CC(N)=O)C(=O)N[C@H](C(=O)N[C@@H](Cc1ccc(O)cc1)C(N)=O)[C@@H](C)O)C(C)C)[C@@H](C)O)C(C)C [rAmy] | 72 ± 7 | 41 ± 5 | 44 ± 5 | 41 ± 6 | 51 ± 7 |  |  |  |  |  | 
2 | CC[C@H](C)[C@H](NC(=O)[C@H](C)NC(=O)[C@@H](NC(=O)[C@H](CCC(N)=O)NC(=O)[C@@H]1CCCN1C(=O)[C@H](Cc1ccccc1)NC(=O)[C@@H](NC(=O)[C@H](Cc1c[nH]cn1)NC(=O)[C@H](Cc1ccccc1)NC(=O)[C@H](CCCCN)NC(=O)[C@H](CC(N)=O)NC(=O)[C@H](Cc1ccccc1)NC(=O)[C@H](CC(=O)O)NC(=O)[C@H](CCC(N)=O)NC(=O)[C@@H](NC(=O)[C@H](Cc1ccc(O)cc1)NC(=O)[C@@H](NC(=O)CNC(=O)[C@H](CC(C)C)NC(=O)[C@H](CCSC)NC(=O)[C@@H]1CSSC[C@H](N)C(=O)NCC(=O)N[C@@H](CC(N)=O)C(=O)N[C@@H](CC(C)C)C(=O)N[C@@H](CO)C(=O)N[C@@H]([C@@H](C)O)C(=O)N1)[C@@H](C)O)[C@@H](C)O)[C@@H](C)O)[C@@H](C)O)C(=O)NCC(=O)N[C@H](C(=O)NCC(=O)N[C@@H](C)C(=O)N1CCC[C@H]1C(N)=O)C(C)C [hCT] | 125 ± 10 | 43 ± 3 | 65 ± 6 | 52 ± 5 | 56 ± 6 |  |  |  |  |  | 
3 | CC(C)C[C@H](NC(=O)CNC(=O)[C@H](C)NC(=O)[C@H](CC(C)C)NC(=O)[C@H](CCCNC(=N)N)NC(=O)[C@H](Cc1cnc[nH]1)NC(=O)[C@@H](NC(=O)[C@@H](NC(=O)[C@@H]1CSSC[C@H](NC(=O)[C@H](C)N)C(=O)N[C@@H](CC(=O)O)C(=O)N[C@@H]([C@@H](C)O)C(=O)N[C@@H](C)C(=O)N[C@@H]([C@@H](C)O)C(=O)N1)C(C)C)[C@@H](C)O)C(=O)N[C@@H](CC(C)C)C(=O)N[C@@H](CO)C(=O)N[C@@H](CCCNC(=N)N)C(=O)N[C@@H](CO)C(=O)NCC(=O)NCC(=O)N[C@H](C(=O)N[C@H](C(=O)N[C@@H](CCCCN)C(=O)N[C@@H](CC(N)=O)C(=O)N[C@@H](CC(N)=O)C(=O)N[C@@H](Cc1ccccc1)C(=O)N[C@H](C(=O)N1CCC[C@H]1C(=O)N[C@H](C(=O)N[C@@H](CC(N)=O)C(=O)N[C@H](C(=O)NCC(=O)N[C@@H](CO)C(=O)N[C@@H](CCCCN)C(=O)N[C@@H](C)C(=O)N[C@@H](Cc1ccccc1)C(N)=O)C(C)C)[C@@H](C)O)C(C)C)C(C)C)C(C)C [hαCGRP] |  | 68 ± 11 | 61 ± 13 | 31 ± 5 |  | 66 ± 15 | 123 | 182 | 67.6 | 12.9 | 
4 | CC(C)C[C@H](NC(=O)[C@H](CCCCN)NC(=O)CNC(=O)[C@H](CC(C)C)NC(=O)[C@@H](NC(=O)[C@@H]1CSSC[C@H](N)C(=O)N[C@@H](CO)C(=O)N[C@@H](CC(N)=O)C(=O)N[C@@H](CC(C)C)C(=O)N[C@@H](CO)C(=O)N[C@@H]([C@@H](C)O)C(=O)N1)C(C)C)C(=O)N[C@@H](CO)C(=O)N[C@@H](CCC(N)=O)C(=O)N[C@@H](CCC(=O)O)C(=O)N[C@@H](CC(C)C)C(=O)N[C@@H](Cc1c[nH]cn1)C(=O)N[C@@H](CCCCN)C(=O)N[C@@H](CC(C)C)C(=O)N[C@@H](CCC(N)=O)C(=O)N[C@H](C(=O)N[C@@H](Cc1ccc(O)cc1)C(=O)N1CCC[C@H]1C(=O)N[C@@H](CCCNC(=N)N)C(=O)N[C@H](C(=O)N[C@@H](CC(N)=O)C(=O)N[C@H](C(=O)NCC(=O)N[C@@H](CO)C(=O)NCC(=O)N[C@H](C(=O)N1CCC[C@H]1C(N)=O)[C@@H](C)O)[C@@H](C)O)[C@@H](C)O)[C@@H](C)O [sCT] | 126 ± 7 | 72 ± 5 | 63 ± 3 | 59 ± 5 | 58 ± 4 |  |  |  |  |  | 
5 | CSCC[C@H](NC(=O)CNC(=O)[C@H](CO)NC(=O)[C@H](Cc1ccccc1)NC(=O)[C@H](CCCNC(=N)N)NC(=O)[C@H](Cc1c[nH]cn1)NC(=O)[C@H](Cc1ccccc1)NC(=O)[C@H](CC(N)=O)NC(=O)[C@H](CC(N)=O)NC(=O)[C@H](CC(C)C)NC(=O)[C@H](CC(N)=O)NC(=O)[C@H](CCCNC(=N)N)NC(=O)[C@H](Cc1c[nH]c2ccccc12)NC(=O)[C@H](Cc1ccc(O)cc1)NC(=O)[C@H](C)NC(=O)[C@H](CO)NC(=O)[C@H](CC(C)C)NC(=O)[C@@H](NC(=O)[C@@H]1CSSC[C@H](N)C(=O)N[C@@H](CO)C(=O)N[C@@H](CC(N)=O)C(=O)N[C@@H](CC(C)C)C(=O)N[C@@H](CO)C(=O)N[C@@H]([C@@H](C)O)C(=O)N1)C(C)C)C(=O)NCC(=O)N[C@@H](Cc1ccccc1)C(=O)NCC(=O)N1CCC[C@H]1C(=O)N[C@@H](CCC(=O)O)C(=O)N[C@H](C(=O)N1CCC[C@H]1C(N)=O)[C@@H](C)O [pCT] (H-CSNLSTCVLSAYWRNLNNFHRFSGMGFGPETP-NH2; disulfide 1-7) |  | 57 ± 6 | 54 ± 3 | 46 ± 5 | 51 ± 3 | 115 ± 9 | 2 | 4.47 | 0.282 | 1.2 | 0.933
